Columns and labels:
[1] = test system: RAS-mutant NSCLC cell lines; experiment: Induction of apoptosis (caspase 3/7 activation) in panel of RAS-mutant NSCLC cell lines; format: cell-based; settings: for Response Rate (sensitivity/total lines tested), Cell Apoptosis (capsase 3/7): Ras mut NSCLC cell lines, caspase 3/7 activation, 24 hours of treatment
Protocol: (§1) A panel of 24 non-small cell lung carcinoma (NSCLC) cell lines harboring RAS mutations was analyzed for genomic alterations, gene expression profiling and protein phosphorylation in MAPK and PI3K pathways. Inhibition of cell growth and induction of apoptosis were determined by CellTiter-Glo® and caspase 3/7 activation assays after 72 and 24 hours of treatment, respectively.

[2] = test system: RAS-mutant NSCLC cell lines; experiment: Inhibition of cell growth (CellTiter-Glo) in panel of RAS-mutant NSCLC cell lines; settings: for Single agent activity (in words): agent alone, cell growth inhibition and apoptosis; for Response Rate (sensitivity/total lines tested), Cell growth inhibition: Ras mut NSCLC cell lines, CellTiter-Glo, 72 hours of treatment
Protocol: Cells are plated in 384-well plates at 500 cells/well in culture media appropriate for each cell type, supplemented with 10% FBS and 1% penicillin/streptomycin, and incubated overnight at 37° C., 5% CO2. Cells are treated in a grid manner with dilution of Compound A^2 (20 dilutions, including no compound, of 2-fold dilutions starting from 1-20 μM depending of compound) from left to right on 384-well plate and also treated with Compound B^2 (20 dilutions, including no compound, of 2-fold dilutions starting from 1-20 μM depending of compound) from top to bottom on 384-well plate and incubated as above for a further 72 hours. In some instances compounds are added in a staggered manner and incubation time can be extended up to 7 days. Cell growth is measured using CellTiter-Glo® reagent according to the manufacturer's protocol and signals are read on a PerkinElmer EnVision™ reader set for luminescence mode with a 0.5-second read.
Results are expressed as a percentage of the t=0 value and plotted against compound(s) concentration. The t=0 value is normalized to 100% and represents the number of cells present at the time of compound addition. The cellular response is determined for each compound and/or compound combination using a 4- or 6-parameter curve fit of cell viability against concentration using the IDBS XLfit plug-in for Microsoft Excel software and determining the concentration required for 50% inhibition of cell growth (gIC50). Background correction is made by subtraction of values from wells containing no cells.
as §1

Molecule | Response Rate (sensitivity/total lines tested), Cell Apoptosis (capsase 3/7) [1] | Single agent activity (in words) ([2]; RAS-mutant NSCLC lines) | Response Rate (sensitivity/total lines tested), Cell growth inhibition [2] | Apoptosis (in words) ([1]; RAS-mutant NSCLC lines, single agent) | Cell growth inhibition (in words) ([2]; RAS-mutant NSCLC lines)
Cn1ncc(Cl)c1-c1cc(C(=O)N[C@H](CN)Cc2cccc(F)c2)sc1Cl [AKT inhibitor, N-{(1S)-2-amino-1-[(3-fluorophenyl)methyl]ethyl}-5-chloro-4-(4-chloro-1-methyl-1H-pyrazol-5-yl)-2-thiophenecarboxamide] | 0% (0/9) | little or no activity | 6% (1/18) |  | 
Cc1nc(Nc2ncc(C(=O)Nc3c(C)cccc3Cl)s2)cc(N2CCN(CCO)CC2)n1 [Dasatinib] | 0% (0/10) |  | 20% (2/10) |  | 
C#Cc1cccc(Nc2ncnc3cc(OCCOC)c(OCCOC)cc23)c1 [Erlotinib] | 0% (0/24) | little or no activity | 0% (0/24) |  | 
COc1ncc(-c2ccc3nccc(-c4ccnnc4)c3c2)cc1NS(=O)(=O)c1ccc(F)cc1F [PI3k/mTOR inhibitor, 2,4-difluoro-N-{2-(methyloxy)-5-[4-(4-pyridazinyl)-6-quinolinyl]-3-pyridinyl}benzenesulfonamide] | 6% (1/16) |  | 69% (9/13) | little apoptosis | potently inhibited cell growth
Nc1nc2[nH]cc(CCc3ccc(C(=O)N[C@@H](CCC(=O)O)C(=O)O)cc3)c2c(=O)[nH]1 [Pemtrexed] |  |  | 38% (4/9) |  | 
dihydroxy-12-[(2R)-1-[(1S,3R,4R)-4-(2-hydroxyethoxy)-3-methoxycyclohexyl]propan-2-yl]-19,30-dimethoxy-15,17,21,23,29,35-hexamethyl-11,36-dioxa-4-azatricyclo[30.3.1.0^4.9]hexatriaconta-16,24,26,28-tetraene-2,3,10,14,20-pentone [Everolimus] | 0% (0/24) | little or no activity | 8% (2/24) |  | 

Source: patent US20130231346A1, “METHODS OF TREATING CANCER” (GLAXOSMITHKLINE INTELLECTUAL PROPERTY (NO.2) LIMITED, priority 2010, published 2013)
